Tests used:
[1] = tested on: translocater protein (TSPO); design: method as in PMID 20705143; details: ipsilateral side of an ischemic rat brain; cited from earlier work
[2] = molecular target: mGluR1 (Rattus norvegicus, UniProt P23385); experiment: In vitro binding assay with [^18F]FITM using cerebellum homogenate; design: from tissue; host or cells: cerebellum homogenate; details: previous unpublished data, S4 Fig
mGluR1, sequence (P23385 19-1199): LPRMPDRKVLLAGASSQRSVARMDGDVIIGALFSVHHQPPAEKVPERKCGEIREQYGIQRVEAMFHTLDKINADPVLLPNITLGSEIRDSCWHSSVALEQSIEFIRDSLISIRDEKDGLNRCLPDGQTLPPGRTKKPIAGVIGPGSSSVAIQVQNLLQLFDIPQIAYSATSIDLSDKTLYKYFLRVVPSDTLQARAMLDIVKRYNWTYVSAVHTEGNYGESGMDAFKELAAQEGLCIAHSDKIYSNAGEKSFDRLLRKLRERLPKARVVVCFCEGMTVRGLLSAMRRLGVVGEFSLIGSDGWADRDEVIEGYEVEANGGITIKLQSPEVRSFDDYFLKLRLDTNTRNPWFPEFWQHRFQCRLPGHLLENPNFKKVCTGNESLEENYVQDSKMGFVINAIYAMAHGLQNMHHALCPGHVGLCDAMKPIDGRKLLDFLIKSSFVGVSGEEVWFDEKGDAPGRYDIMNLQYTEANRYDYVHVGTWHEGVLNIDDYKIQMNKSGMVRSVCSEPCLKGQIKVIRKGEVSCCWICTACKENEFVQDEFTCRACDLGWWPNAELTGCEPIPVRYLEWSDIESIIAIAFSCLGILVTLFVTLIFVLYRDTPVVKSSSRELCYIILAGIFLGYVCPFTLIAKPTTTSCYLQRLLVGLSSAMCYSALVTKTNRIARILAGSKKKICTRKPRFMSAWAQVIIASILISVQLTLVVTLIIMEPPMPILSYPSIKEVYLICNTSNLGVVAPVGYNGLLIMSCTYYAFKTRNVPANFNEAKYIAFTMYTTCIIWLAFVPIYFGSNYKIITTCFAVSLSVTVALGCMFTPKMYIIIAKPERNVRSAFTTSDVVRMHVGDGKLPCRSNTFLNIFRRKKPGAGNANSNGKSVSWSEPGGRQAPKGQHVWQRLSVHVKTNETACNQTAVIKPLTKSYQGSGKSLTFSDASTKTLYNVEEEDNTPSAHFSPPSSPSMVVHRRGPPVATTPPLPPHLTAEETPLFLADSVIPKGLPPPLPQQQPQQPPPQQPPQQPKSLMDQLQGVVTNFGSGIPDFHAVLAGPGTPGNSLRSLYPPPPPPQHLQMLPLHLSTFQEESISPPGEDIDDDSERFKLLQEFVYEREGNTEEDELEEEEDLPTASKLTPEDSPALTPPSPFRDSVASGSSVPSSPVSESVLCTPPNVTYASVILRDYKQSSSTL

Cn1c(=O)n(CC(=O)N([11CH3])Cc2ccccc2)c2nc(-c3ccccc3)ncc21 [[^11C]DAC]
binding potential, ultra-high SA vs conventional SA [1]: roughly two times higher

CC(C)Nc1cc(-c2csc(N(C)C(=O)c3ccc([18F])cc3)n2)ncn1 [[^18F]FITM, 4-[18F]fluoro-N-[4-[6-(isopropylamino)pyrimidin-4-yl]-1,3-thiazol-2-yl]-N-methylbenzamide]
binding sites [2]: two binding sites of [^18F]FITM possessing high and low affinities
